In patent US10882852B1, “3-vinylquinolines as cancer cells inhibitors” (King Abdulaziz University, priority 2020, dated 2021):
Where “and” joins values, the source holds several entries; their conditions need not be identical. Equal values may be shown once. Read-outs that look alike come from different tables or passages of the source.

How the values were obtained:
[1] = test system: HCT-116 colon cancer cells; experiment: MTT cell viability assay, HCT-116; format: cell-based, human; conditions: HCT-116, MTT
Procedure: (§1) All the human tumour cell lines MCF-7, HCT-116, HL-60 and HeLa were cultured in Dulbecco's Modified Eagle's Medium (DMEM) with 10% fetal bovine serum, 2 mM L-glutamine and 100 µg/mL penicillin/streptomycin. Cells were maintained at 37° C. in 5% CO2 in a humidified incubator. All cells were sub-cultured 3 times/week by trypsinization using TrypLE Express (1×).
(§2) The quinoline compounds were evaluated for antiproliferative effect using the MTT viability assay of four cancer cell lines (MCF-7, HCT-116, HL-60 and HeLa) and normal breast cells MCF-10A to calculate the relative IC50 values for each compound. Cells were seeded in triplicate in 96-well plates at a density of 10×10^3 cells/ml in a total volume of 200 μl per well. 0.1% of DMSO was used as a vehicle control. After this time, they were treated with 2 μl test compound which had been pre-prepared as stock solutions in ethanol to furnish the concentration range of study, 1 nM to 50 μM, and re-incubated for a further 72 h. The culture medium was then removed, and the cells washed with 100 μL phosphate buffered saline (PBS) and 50 μL MTT added, to reach a final concentration of 1 mg/mL MTT added. Cells were incubated for 2 h in darkness at 37° C. At this point solubilisation was begun through the addition of […] DMSO and the cells maintained at room temperature in darkness for 20 min to ensure thorough colour diffusion before reading the absorbance. Plates were incubated for 72 hours at 37° C.+5% CO2, The MTT (5 mg/mL in PBS) was added and incubated for another 4 h, the optical density was detected with a microplate reader at 570 nm. Results were expressed as percentage viability relative to vehicle control (100%). Dose response curves were plotted and IC50 values (concentration of drug resulting in 50% reduction in cell survival) were obtained using the commercial software package Prism (GraphPad Software, Inc., La Jolla, Calif., USA). All the experiments were repeated in at least three independent experiments.

[2] = test system: bovine brain tubulin; experiment: Tubulin polymerization assay; format: biochemical; conditions: inhibition of tubulin polymerization; tubulin at 10 μM; read-out: Tubulin assembly IC50 ± SD
Procedure: The assembly of purified bovine tubulin was monitored using a kit, BK006, purchased from Cytoskeleton Inc., (Denver, Colo., USA). The assay was carried out in accordance with the manufacturer's instructions using the standard assay conditions. […] Light is scattered proportionally to the concentration of polymerized microtubules in the assay. Therefore, tubulin assembly was monitored turbidimetrically at 340 nm in a Spectramax 340 PC spectrophotometer (Molecular Devices, Sunnyvale, Calif., USA). The concentration that inhibits tubulin polymerization by 50% (IC50) was determined using area under the curve (AUC). The AUC of the untreated controls were considered as 100% polymerization. The IC50 value for each compound was computed using GraphPad Prism Software.

[3] = test system: HeLa cervical cancer cells; experiment: MTT cell viability assay, HeLa; format: cell-based, human
Procedure: as §1, §2

[4] = test system: tubulin (colchicine binding site); experiment: [3H]colchicine site competitive binding assay; conditions: inhibition of [3H]colchicine binding
Procedure: The affinity of compounds 8c to colchicine binding site was determined using Colchicine Site Competitive Assay kit CytoDYNAMIX Screen15 (Cytoskeleton, Inc., CO, USA) using the standard protocol of the manufacturer to determine Ki values (μM). Biotin-labelled tubulin ([…]) in 10 μL of reaction buffer was mixed with [3H]colchicine (0.08 μM, PerkinElmer, Waltham, Mass.) and the test compounds (positive control colchicine, negative control vinblastine, G-1, fluorescent G-1, or 2-ME) in a 96-well plate (final volume: 100 μL). After incubating for 2 h at 37° C. with gentle shaking, streptavidin-labelled yttrium SPA beads ([…] in 20 μL reaction buffer, PerkinElmer, Waltham, Mass.) were added to each well and incubated for 30 min at 4° C. The plates were then read on a scintillation counter (Packard Instrument, Topcount Microplate Reader) and the percentage of inhibition was calculated

[5] = test system: MCF-7 breast cancer cells; experiment: MTT cell viability assay, MCF-7; format: cell-based, human
Procedure: as §1, §2

[6] = test system: MCF-10A normal epithelial breast cells; experiment: MTT cell viability assay, normal breast cells; format: cell-based, human; conditions: 72 h
Procedure: as §2, with “Dose response curves were plotted and IC50 values (concentration of drug resulting in 50% reduction in cell survival) were obtained using the commercial software package Prism (GraphPad Software, Inc., La Jolla, Calif., USA). All the experiments were repeated in at least three independent experiments.” left out

[7] = test system: MCF-7 cells; experiment: Cell cycle analysis by PI flow cytometry; format: cell-based, human; conditions: MCF-7, 50 nM
Procedure: MCF-7 cells were seeded at a density of 1×10^5 cells/well in 6-well plates and treated with CA-4 (50 nM) and compound 8c (50 and 250 nM) for 24, 48 and 72 hr. The cells were collected by trypsinization and centrifuged at 800×g for 15 min. Cells were washed twice with ice-cold PBS and fixed in ice-cold 70% ethanol overnight at −20° C. Fixed cells were centrifuged at 800×g for 15 min and stained with 50 μg/mL of PI, containing 50 μg/mL of DNase-free RNase A, at 37° C. for 30 min. The DNA content of cells (10,000 cells/experimental group) was analysed by flow cytometer at 488 nm using a FACSCalibur flow cytometer (BD Biosciences, San Jose, Calif.) and all data were recorded and analyzed using the CellQuest Software (Becton-Dickinson).

[8] = test system: HL-60 leukemia cells; experiment: MTT cell viability assay, HL-60; format: cell-based, human
Procedure: as §1, §2

[9] = test system: MCF-7 cells; experiment: Annexin V/PI apoptotic assay; format: cell-based, human; conditions: MCF-7, 50 nM, 48 h; control 1%
Procedure: Apoptotic cell death was detected by flow cytometry using Annexin V and propidium iodide (PI). […] Cells were then harvested and prepared for flow cytometric analysis. Cells were washed in 1× binding buffer (20× binding buffer: 0.1M HEPES, pH 7.4; 1.4 M NaCl; 25 mM CaCl2) diluted in dH2O) and incubated in the dark for 30 minutes on ice in Annexin V-containing binding buffer [1:100]. Cells were then washed once in binding buffer and then re-suspended in […] binding buffer [1:1000]. Samples were analysed immediately using the BD accuri flow cytometer and prism software for analysis the data. Four populations are produced during the assay Annexin V and PI negative (Q4, healthy cells), Annexin V positive and PI negative (Q3, early apoptosis), Annexin V and PI positive (Q2, late apoptosis) and Annexin V negative and PI positive (Q1, necrosis).

[10] = test system: MCF-7 cells; experiment: ROS production by H2-DCFDA; format: cell-based, human; conditions: MCF-7, 50 nM, 24 h; untreated 1.0%
Procedure: Mitochondrial membrane potential (Δψmt) was measured by flow cytometry with DiOC2(3) staining and additional labelling with an annexin V conjugate. After treatment with compound 8c (50 and 250 nM) and CA-4 (50 nM), cells were stained with DiOC2(3) dye for 30 min in the incubator then harvested and washed with PBS. DiOC2(3)-stained cells were resuspended with 1× annexin binding buffer then added annexin V conjugate and incubated at 37° C. for 15 min. Then the data obtained from flow cytometry were analyzed by Cell Quest software. Production of intracellular Reactive oxygen species (ROS) was measured using 2,7-dichlorofluorescin diacetate (H2-DCFDA) dye. MCF-7 cells were seeded and treated either with vehicle (0.1% DMSO) or with compound 8c (50 and 250 nM) and CA-4 (50 nM) for different time 6, 12 and 24 h. H2O2 was used as a positive control. The amount of ROS generated was estimated after 2 h of selected compound treatment. The cells were collected by centrifugation and washed twice with PBS. Cells were then incubated with DCFDA dye (25 μM) in dark at 37° C. for 1 h. Fluorescence spectra (510-600 nm) were monitored using an excitation wavelength of 488 nm

[11] = test system: caspase-9; experiment: Caspase-9 activation assay in MCF-7 cells; format: cell-based, human; conditions: MCF-7, 50 nM
Procedure: (§3) Bcl-2 content of MCF-7 cells was assessed by ELISA Kit purchased Zymed laboratories, invitrogen immunodetection according to the manufacturer's protocol, and the enzyme concentration was expressed as ng/mL [55]. ELISA Assay for BAX content of MCF-7 cells was assessed by ELISA kit purchased from Cloud-Clone Crop. (USA) according to the manufacturer's protocol, and the enzyme concentration was expressed as ng/mL [56]. In Vitro Caspase-9 Activation Assay was performed using human active caspase-9 Invitrogen EIA kit and the procedure of the used kit was done according to the manufacturer's instructions.

[12] = test system: MCF-7 cells; experiment: Wound healing (cell migration) assay; format: cell-based, human; conditions: MCF-7, 24 h
Procedure: MCF-7 were grown in 6-well plates for 24 h, then the scratches were made using pipette tip and washed with PBS to remove non-adherent cell debris. Subsequently, the cells were treated with different concentrations of 8c for 24 h. The migrations across the wound area were photographed under a phase contrast microscopy.

[13] = test system: anti-apoptotic protein Bcl-2; experiment: Bcl-2 ELISA in MCF-7 cells; format: cell-based, human; conditions: MCF-7, 250 nM, 48 h
Procedure: as §3

[14] = test system: MCF-7 cells; experiment: Colony formation assay; format: cell-based, human; conditions: MCF-7, 50 and 250 nM
Procedure: MCF-7 cells (600 cells per well) were seeded in 6-well plates and incubated for 24 h before being then treated with different doses of the compound 8c (50 and 250 nM) for 14 days. […]. Then the cells were washed with PBS twice and subsequently fixed with 4% paraformaldehyde and stained with 0.05% crystal violet for 30 min. Finally, cells were visualized using an inverted microscope.

[15] = test system: pro-apoptotic protein Bax; experiment: BAX ELISA in MCF-7 cells; format: cell-based, human; conditions: MCF-7, 250 nM, 48 h
Procedure: as §3

COc1ccc(/C=C\c2cc(OC)c(OC)c(OC)c2)cc1O [CA-4, Combretastatin A-4, reference compound]
IC50 ([1]; 72 h, read-out: IC50 value (μM) HCT-116): 0.026 ± 0.001 µM | IC50 [2]: […] | IC50 ([3]; 72 h, read-out: IC50 value (μM) HeLa): 0.064 ± 0.004 µM | Colchicine binding % ± SD, 1 μM drug [4]: 86% and 86 ± 0.9% | Colchicine binding % ± SD, 5 μM drug [4]: 97% and 97 ± 2% | IC50 ([5]; MCF-7, MTT, 72 h, read-out: IC50 value (μM) MCF-7): 0.019 ± 0.004 µM | IC50 [6]: 6100 nM | percentage of cells in G2/M phase ([7]; 24 h): 40.3% | population in the sub-G1 phase (apoptosis) ([7]; 24 h): 23.5% | population in the sub-G1 phase (apoptosis) ([7]; 48 h): 31.1% | percentage of cells in G2/M phase ([7]; 48 h, control 9.2%): 43.8% | percentage of cells in G2/M phase ([7]; 72 h): 47.7% | population in the sub-G1 phase (apoptosis) ([7]; 72 h): 37.4% | IC50 ([8]; HL-60, MTT, 72 h, mean ± spread of three experiments, read-out: IC50 value (μM) HL-60): 0.076 ± 0.004 µM | Annexin V-staining positive cells (total apoptotic cells) [9]: 29% | ROS generation [10]: 18.3%

COc1cc(C2=NC(=Cc3cc4ccc(C)cc4nc3OC)C(=O)O2)cc(OC)c1OC [Compound 8c, 4-[(2-Methoxy-7-methylquinolin-3-yl)methylene]-2-(3,4,5-trimethoxyphenyl)oxazol-5(4H)-one]
fold increase in caspase-9 expression [11]: about 6 fold | IC50 ([1]; Homo sapiens, read-out: IC50 in HCT-116): 0.0225 µM | inhibition of cell migration (wound healing) [12]: migration inhibition in a dose dependent manner | IC50 [2]: 1200 nM and 1210 nM | IC50 ([3]; Homo sapiens, read-out: IC50 in HeLa): 0.0427 µM | Colchicine binding % ± SD, 1 μM drug [4]: 79% and 79 ± 2% | Colchicine binding % ± SD, 5 μM drug [4]: 87% and 87 ± 1% | expression level of anti-apoptotic protein Bcl-2 [13]: decrease in the expression level | IC50 ([5]; Homo sapiens, MCF7, MCF-7, MTT, read-out: IC50 in MCF-7): 0.0107 µM | IC50 ([5]; MCF-7, MTT, read-out: IC50 in MCF-7): 0.0191 µM | inhibition of colony formation [14]: inhibited the colony formation in a dose dependent manner | expression of pro-apoptotic protein Bax [15]: up-regulation in the expression | IC50 ([8]; HL-60, MTT, read-out: IC50 in HL-60): 0.0107 µM | IC50 ([8]; Homo sapiens, HL-60, HL-60, MTT, read-out: IC50 in HL-60): 0.0191 µM | Annexin V-staining positive cells (total apoptotic cells) [9]: 15%
